Like-named read-outs stand apart in the source and are kept apart here.

Consider 2 molecules from patent US12225903B2, “Synergistic cleaning disinfectant solution with enhanced stability, and methods of using the same” (Diversey, Inc., priority 2019, dated 2025).

Experiment [1] has as its system bacteria Staphylococcus aureus, Escherichia coli, and Lactobacillus brevis. The experiment can be described thus: Amount of antimicrobial acid required to pass EN1276:2009 (antibacterial activity). Type of experiment: cell-based. The settings on record: gluconic and salicylic acid used in combination. An excerpt: To pass the EN1276 test method, a log reduction of greater than or equal to 5 must be achieved in five minutes.

In experiment [2] the test system is fungus Aspergillus niger and yeast Saccharomyces cerevisiae. The experiment can be described thus: Amount of antimicrobial acid required to pass EN1650:2008 (antifungal activity). Type of experiment: cell-based. The settings on record: gluconic and salicylic acid used in combination. From the text:
To pass the EN 1650:2008 antimicrobial testing protocol, a log reduction of greater than or equal to 4 must be achieved in fifteen minutes.

For experiment [3] the following is noted: in combination with gluconic acid.

Take `O=C(O)[C@H](O)[C@@H](O)[C@H](O)[C@H](O)CO` [Gluconic Acid, Gluconic acid]: the “Concentration of Antimicrobial Acids required to pass” value (shortened to “Concentration”) in experiment [1] (Clean, 4° C.) is 300 ppm; in experiment [1] (Clean, 25° C.), 150 ppm; in experiment [1] (Dirty, 4° C.), 300 ppm; in experiment [1] (Dirty, 25° C.), 150 ppm; in experiment [2] (Clean, 4° C.) it was 750 ppm; in experiment [2] (Clean, 25° C.) it was 600 ppm. In addition, the “Concentration” value is reported as 750 ppm in experiment [2] (Dirty, 4° C.) and 750 ppm in experiment [2] (Dirty, 25° C.).

Turning to `O=C(O)c1ccccc1O` [Salicylic Acid, Salicylic acid], the “Concentration” value is on record as 75 ppm in experiment [1] (Clean, 4° C.); 37 ppm in experiment [1] (Clean, 25° C.); 75 ppm in experiment [1] (Dirty, 4° C.); 37 ppm in experiment [1] (Dirty, 25° C.); 188 ppm in experiment [2] (Clean, 4° C.); 150 ppm in experiment [2] (Clean, 25° C.). Besides, the “Concentration” value in experiment [2] (Dirty, 4° C.) came out at 188 ppm; in experiment [2] (Dirty, 25° C.), 188 ppm. For the same molecule, the “required amount of salicylic acid in the disclosed cleaning disinfectant solution” value in experiment [3] is “less than 2 % by weight”; in experiment [3] (to pass EN1276:2009 and EN1650:2008), “less than 2 wt %”.
